Assay results: US20040198758A1, “N-heterocyclyl substituted thienyloxy-pyrimidines used as herbicides” (priority 2001, published 2004)

What was measured:
Assay in all cases: greenhouse post-emergence herbicidal treatment
Type in all cases: in vivo
Details in all cases: application rates of 0.25 or 0.125 kg/ha
[1] = tested on: Amaranthus retroflexus
Excerpt: (§1) The seeds of the test plants were sown separately for each species. For the post-emergence treatment, the test plants were first grown to a height of from 3 to 15 cm, depending on the plant habit, and only then treated with the active compounds which had been suspended or emulsified in water. The test plants were for this purpose either sown directly and grown in the same containers., or they were first grown separately as seedlings and transplanted into the test containers a few days prior to treatment. The application rate for the post-emergence treatment was 0.25 or 0.125 kg of a.s. (active substance)/ha. Depending on the species, the plants were kept at 10-25° C. or 20-35° C. The test period extended over 2 to 4 weeks. During this time, the plants were tended, and their response to the individual treatments was evaluated. Evaluation was carried out using a scale from 0 to 100. 100 means no emergence of the plants, or complete destruction of at least the above-ground parts and 0 means no damage, or normal course of growth. The plants used in the greenhouse experiments were of the following species: [table]

[2] = tested on: Chenopodium album
Excerpt: as §1

[3] = tested on: Galium aparine
Excerpt: as §1

[4] = tested on: Pharbitis purpurea
Excerpt: as §1

[5] = tested on: Polygonum persicaria
Excerpt: as §1

Cc1cnc(-n2ccc(C(F)(F)F)n2)nc1Oc1csc(C(F)(F)F)c1 [I 1.1, 5-methyl-2-[3-(trifluoromethyl)-1H-pyrazol-1-yl]-4-{[5-(trifluoromethyl)-3-thienyl]oxy}pyrimidine]
very good: post-emergence action against Amaranthus retroflexus [1] | post-emergence action against Chenopodium album [2] | post-emergence action against Galium aparine [3] | post-emergence action against Pharbitis purpurea [4] | post-emergence action against Polygonum persicaria [5]
